The values that follow come from PMC4249762 (Nature cell biology, 2014).

Holding throughout (assay type): biochemical
One test concerns the target cathepsin S (Homo sapiens, UniProt P25774). Description: fluorimetric hydrolysis of Z-Leu-Arg-AMC by purified enzyme, pH […].
The target of another test is cathepsin B (Homo sapiens, UniProt P07858). Description: enzyme selectivity assay with peptide substrate.
The target in the next test is mouse cathepsin S (Mus musculus, UniProt O70370). The test is described as follows: fluorimetric hydrolysis of Z-Leu-Arg-AMC by purified enzyme, pH […].

cathepsin S, sequence (P25774 115-331): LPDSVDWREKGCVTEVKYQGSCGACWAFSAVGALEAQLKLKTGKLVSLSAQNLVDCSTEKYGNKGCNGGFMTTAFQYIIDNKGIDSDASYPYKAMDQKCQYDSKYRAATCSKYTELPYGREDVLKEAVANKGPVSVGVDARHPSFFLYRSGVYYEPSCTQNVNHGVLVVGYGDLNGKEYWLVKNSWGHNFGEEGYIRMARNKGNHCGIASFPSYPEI

In general, Ki refers to a dissociation constant, usually derived from enzyme kinetics or from competition with a known ligand. Higher therefore signals weaker binding. Regarding VBY-999, the Ki at cathepsin S was 0.29 nM; at cathepsin B it was 700 nM; at mouse cathepsin S, 0.69 nM.
